According to patent US11357246B2, “High intensity sweeteners” (Firmenich Incorporated, priority 2015, dated 2022):

Tests used:
[1] = Paired comparison testing (2-AFC) of sweet intensity versus 300 ppm Rebaudioside A by trained panelists; assay type: in vivo; details: for Sample selected as sweeter by panelists, Total: LSB pH ~7.1; for Sweetness compared with 300 ppm Rebaudioside A (2-AFC): 0.25 mL sample, LSB pH ~7.1, 0% ethanol
Description: Paired comparison tests (2-Alternative Forced Choice difference tests, i.e., 2-AFC) were used to determine sweet intensity equivalence between samples prepared with Rebaudioside A and the test sweet compound. Trained external panelists were used for the taste tests.
2-AFC tests, compound solutions were tested against 300 ppm Rebaudioside A to determine how they matched in sweet intensity. Panelists tasted both samples and indicated which sample was sweeter in each pair. Panelists rinsed their mouths with water prior to starting any test. Samples were presented to panelists in randomized, counterbalanced pairs and were labeled with 3-digit blinding codes. Panelists rinsed with water between samples as well as between pairs. There was a 90 second delay to clear the mouth of any tastes after each pair evaluation. Three replicates of each test were performed.
The 2-AFC data was analyzed to determine significant differences between 300 ppm Rebaudioside A and compound solutions using a probability table for a two-tailed test (alpha=0.05).
The paired comparison testing was performed using a 0.25 mL sample size, and all samples were made with Low Sodium Buffer (LSB) pH ˜7.1 and contain 0% ethanol.

hT1R2/hT1R3 = molecular target: T1, hT1R2/hT1R3 (Homo sapiens, UniProt Q7RTX0+Q8TE23); test: HTS-Sweet: FLIPR calcium fluorometric imaging assay in cells stably expressing the human sweet taste receptor and a promiscuous G protein; assay type: cell-based; details: FLIPR, Fluo-4AM, 10 concentrations 0.4 μM to 200 μM in duplicates; read-out: Compound EC50s for hT1R2/hT1R3
T1 construct: expressed in transfected cells; parental cells lack the receptor
T1 sequence (Q8TE23 20-839): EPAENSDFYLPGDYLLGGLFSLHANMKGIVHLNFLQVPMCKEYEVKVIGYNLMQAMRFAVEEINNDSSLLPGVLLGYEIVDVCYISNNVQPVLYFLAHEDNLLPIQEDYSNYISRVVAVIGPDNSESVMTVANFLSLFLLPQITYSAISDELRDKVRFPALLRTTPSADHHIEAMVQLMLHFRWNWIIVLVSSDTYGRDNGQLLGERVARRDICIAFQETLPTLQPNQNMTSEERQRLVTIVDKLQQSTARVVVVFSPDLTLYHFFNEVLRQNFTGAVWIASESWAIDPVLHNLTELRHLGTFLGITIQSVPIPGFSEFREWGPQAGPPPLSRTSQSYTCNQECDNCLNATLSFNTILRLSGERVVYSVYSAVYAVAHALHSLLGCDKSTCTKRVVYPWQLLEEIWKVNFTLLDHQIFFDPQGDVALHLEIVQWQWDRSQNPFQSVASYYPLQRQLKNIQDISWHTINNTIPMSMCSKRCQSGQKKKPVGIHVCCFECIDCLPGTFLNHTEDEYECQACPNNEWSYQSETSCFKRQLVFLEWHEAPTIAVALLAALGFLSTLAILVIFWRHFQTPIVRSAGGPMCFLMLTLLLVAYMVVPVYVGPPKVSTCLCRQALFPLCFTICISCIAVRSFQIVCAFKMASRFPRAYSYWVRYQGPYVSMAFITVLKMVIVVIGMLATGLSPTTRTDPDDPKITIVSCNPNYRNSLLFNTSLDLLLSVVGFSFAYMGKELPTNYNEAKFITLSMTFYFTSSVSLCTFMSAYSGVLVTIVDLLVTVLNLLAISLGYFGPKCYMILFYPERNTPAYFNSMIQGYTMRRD
T1 sequence (Q7RTX0 21-852): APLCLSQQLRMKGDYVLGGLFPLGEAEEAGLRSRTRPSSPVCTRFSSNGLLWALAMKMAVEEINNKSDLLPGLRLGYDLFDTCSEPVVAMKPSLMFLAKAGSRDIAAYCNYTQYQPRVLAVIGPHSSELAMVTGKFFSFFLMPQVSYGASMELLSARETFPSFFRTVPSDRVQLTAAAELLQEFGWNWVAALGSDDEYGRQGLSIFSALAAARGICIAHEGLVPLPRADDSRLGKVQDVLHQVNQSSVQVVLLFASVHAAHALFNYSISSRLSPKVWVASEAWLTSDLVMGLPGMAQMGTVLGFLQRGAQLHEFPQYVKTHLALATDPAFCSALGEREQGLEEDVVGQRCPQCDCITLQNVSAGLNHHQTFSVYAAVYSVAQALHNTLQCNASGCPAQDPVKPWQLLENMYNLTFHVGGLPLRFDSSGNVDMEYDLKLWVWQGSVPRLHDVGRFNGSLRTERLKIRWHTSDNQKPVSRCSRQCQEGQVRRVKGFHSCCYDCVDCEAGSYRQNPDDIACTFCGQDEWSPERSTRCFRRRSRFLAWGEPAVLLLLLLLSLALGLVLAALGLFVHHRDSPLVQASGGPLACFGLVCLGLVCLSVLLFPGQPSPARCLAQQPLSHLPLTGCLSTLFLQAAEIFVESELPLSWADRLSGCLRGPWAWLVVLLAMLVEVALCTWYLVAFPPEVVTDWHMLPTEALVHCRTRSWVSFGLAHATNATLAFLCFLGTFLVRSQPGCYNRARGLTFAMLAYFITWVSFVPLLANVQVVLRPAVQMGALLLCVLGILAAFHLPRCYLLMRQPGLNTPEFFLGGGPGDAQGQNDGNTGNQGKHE
Description: Compound activity (EC50) was determined using an automated fluorometric imaging assay on a FLIPR instrument (Fluorometric […] Plate Reader, Molecular Devices, Sunnyvale, Calif.). Cell stably expressing the human sweet taste receptor and a promiscuous G protein were seeded into 384-well plates (at approximately 40,000 cells per well). Cells were grown for 24 hours at 37° C. Cells were then loaded with the calcium dye Fluo-4AM (Molecular Probes, Eugene, Oreg.), 4 μM in a phosphate buffered saline (D-PBS) (Invitrogen, Carlsbad, Calif.), for 1 hour at room temperature. After replacement with 25 μl D-PBS, stimulation was performed in the FLIPR instrument and at room temperature by the addition of 25 μl D-PBS supplemented with different stimuli at concentrations corresponding to twice the desired final level. Receptor activity was quantified by determining the maximal fluorescence increases (using a 480 nm excitation and 535 nm emission) after normalization to basal fluorescence intensity measured before stimulation.
For dose-responses analysis, stimuli were presented in duplicates at 10 different concentrations ranging from 0.4 μM to 200 μM. EC50 s were determined using a non-linear regression algorithm, where the Hill slope, bottom asymptotes and top asymptotes were allowed to vary.

[2] = 250 ppm Compound 18 vs 300 ppm Rebaudioside A, n = 36 (12 panelists × 3 reps), p-value 0.681
[3] = 300 ppm Compound 18 vs 300 ppm Rebaudioside A, n = 42 (14 panelists × 3 reps), p-value 0.044
[4] = 300 ppm Compound 1 vs 300 ppm Rebaudioside A, n = 45 (15 panelists × 3 reps), p-value 0.072

Row | SMILES | Sample selected as sweeter by panelists, Total [1, 2] | Sample selected as sweeter by panelists, Total [1, 3] | Sweetness compared with 300 ppm Rebaudioside A (2-AFC) ([1]; test compound at 250 ppm) | Sweetness compared with 300 ppm Rebaudioside A (2-AFC) ([1]; test compound at 300 ppm) | Sample selected as sweeter by panelists, Total [1, 4] | EC50 (hT1R2/hT1R3) [µM]
1 | C[C@H](CC[C@@H](O[C@@H]1O[C@H](CO)[C@@H](O)[C@H](O)[C@H]1O[C@@H]1O[C@H](CO)[C@@H](O)[C@H](O[C@@H]2O[C@H](CO)[C@@H](O)[C@H](O)[C@H]2O)[C@H]1O)C(C)(C)O)C1CC[C@@]2(C)C3CC=C4C(CC[C@H](O[C@@H]5O[C@H](CO)[C@@H](O)[C@H](O[C@@H]6O[C@H](CO)[C@@H](O)[C@H](O)[C@H]6O)[C@H]5O)C4(C)C)[C@]3(C)[C@H](O)C[C@]12C (stereo partly shown) [Compound 18] | 20 | 28 | not significantly different in sweetness | significantly sweeter |  | 
2 | C[C@H](CC[C@@H](O[C@@H]1O[C@H](CO)[C@@H](O)[C@H](O)[C@H]1O[C@@H]1O[C@H](CO)[C@@H](O)[C@H](O)[C@H]1O)C(C)(C)O)C1CC[C@@]2(C)C3CC=C4C(CC[C@H](O[C@@H]5O[C@H](CO)[C@@H](O[C@@H]6O[C@H](CO)[C@@H](O)[C@H](O)[C@H]6O)[C@H](O)[C@H]5O)C4(C)C)[C@]3(C)[C@H](O)C[C@]12C (stereo partly shown) [Compound 1] |  |  |  | not significantly different in sweetness | 16 | 
3 | C=C1C[C@@]23CC[C@H]4[C@@](C)(CCC[C@@]4(C)C(=O)O[C@@H]4O[C@H](CO)[C@@H](O)[C@H](O)[C@H]4O)[C@@H]2CC[C@]1(O[C@@H]1O[C@H](CO)[C@@H](O)[C@H](O[C@@H]2O[C@H](CO)[C@@H](O)[C@H](O)[C@H]2O)[C@H]1O[C@@H]1O[C@H](CO)[C@@H](O)[C@H](O)[C@H]1O)C3 [Rebaudioside A, reference compound] | 16 | 14 |  |  | 29 | 
4 | C[C@H](CC[C@@H](O[C@@H]1O[C@H](CO)[C@@H](O)[C@H](O)[C@H]1O[C@@H]1O[C@H](CO)[C@@H](O[C@@H]2O[C@H](CO)[C@@H](O)[C@H](O)[C@H]2O)[C@H](O)[C@H]1O)C(C)(C)O)C1CC[C@@]2(C)C3CC=C4C(CC[C@H](O[C@@H]5O[C@H](CO)[C@@H](O)[C@H](O)[C@H]5O)C4(C)C)[C@]3(C)[C@H](O)C[C@]12C (stereo partly shown) [Compound 13] |  |  |  |  |  | 17 to 30
